Legend:
[1] = tested on: chronic constriction injury (CCI) neuropathic pain model; test: Mechanical allodynia (Von Frey) in chronic constriction injury (Bennett) model, Example 3; assay type: in vivo, rat; details: Day 14 post-surgery, 30 and 90 min post-dosing, vs vehicle; for Mechanical allodynia (50% allodynia threshold), left (affected) paw: (+)-naloxone.HCl 66.7 mg/kg S.C., Gabapentin 100 mg/kg I.P.
Excerpt: Neuropathic pain affects approximately 1% of the U.S. population and is extremely difficult to manage. Usually the pain is chronic, severe, and fails to respond to traditional analgesic drugs. Fortunately, one of the most widely used animal models for neuropathic pain closely mimics the pain endured by patients. In this model, termed the chronic constriction injury (CCI) or Bennett model, four closely spaced ligatures tied loosely around the sciatic nerve of a rat cause demyelination of the nerve, resulting in spontaneous pain, such as prolonged paw elevation and licking of the ligated paw. Induced pain in the nerve-injured limb can be measured using Von Frey filaments, applied to the plantar surface of the paw to test for responses to non-noxious tactile stimulation. The onset of this heightened mechanical allodynia is quite rapid and it persists for 2-3 months.
In this example, the CCI ligation was performed on the left sciatic nerve in three groups of rats. Von Frey testing of mechanical allodynia was performed on both paws on Day 14 to determine the analgesic efficacy of the test agent. The testing was performed pre-dosing, and at 30 and 90 minutes post-dosing.
The animals were allocated to treatment groups based on their baseline Von Frey data, measured prior to surgery. The mechanical allodynia scores for each group were reviewed to ensure that the mean values and standard deviation satisfied the assumption of homogeneity. Thirty-one (31) animals were used on the study. Thirty (30) animals were initially allocated to treatment groups, and the remaining […] animals were held as spares. One spare was then used to replace an animal that died during surgery. Body weights were taken one day after arrival, prior to surgery and weekly thereafter. On Day 14, after the final behavioral testing, the animals were euthanized by carbon dioxide asphyxiation. No necropsy was performed nor tissues collected.
All surgeries were performed under aseptic conditions. Prior to surgery, the rats were sedated using inhaled Isoflurane anesthetic. The left leg was shaved and prepped. The common sciatic nerve was exposed and freed from adherent tissue at mid-thigh by separating the muscle (biceps femoris) by blunt dissection. Proximal to the sciatic nerve's trifurcation; approximately 7 mm of nerve was freed from the adhering tissue. Four ligatures, approximately 1 mm apart, were tied loosely around the nerve using 6.0 chromic catgut. Each of the sutures was tied loosely with a square knot around the sciatic nerve. A brief twitch in the muscle surrounding the exposure was an indicator of the desired degree of constriction. The site was then closed using the appropriate suture material. Post-operative care and observations were carried out until the animal recovered consciousness.
The animals underwent a series of behavioral testing for neuropathic pain assessment. A Von Frey test of mechanical allodynia was performed on both hind paws prior to surgery to achieve a baseline measurement for randomization and then following surgery on Day 14 (test article efficacy) according to Table 4.
Twice prior to surgery, the animals were acclimated to the allodynia apparatus. This habituated the rats to the testing devices to familiarize them with the apparatus so they were calm at the time of testing. […] Animals were first habituated to the testing chamber so that they were calm enough for their pain threshold to be assessed. […]

[2] = tested on: hepatic IR injury in steatotic livers; test: IR injury in high fat diet (HFD) steatotic liver model; assay type: in vivo, mouse
Excerpt: In addition to the scarcity of liver donations, many of the donor livers have a significant degree of steatosis which is known to increase IR injury. Thus, many otherwise healthy, but steatotic, livers are rejected for transplantation. If a drug can be shown to reduce IR injury in steatotic livers it would allow use of steatotic livers for transplantation and increase the total number of liver transplants that could be performed. To test this, mice were placed on a high fat diet (HFD) for 12 weeks to induce hepatic steatosis, which was followed by IR injury. For this, mice were subjected to hepatic ischemia by occluding the vasculature supplying the left and median lobes (ischemic lobes) of the liver by a microvascular clamp. After 1 hour of ischemia, the blood supply was resumed (reperfusion). Some animals were sacrificed after 3 hour of reperfusion, and others after 12 hours or reperfusion. The experimental group received Cmpd II-78 at a dose of 80 mg/kg given intraperitoneally 1 hour prior to starting ischemia. Cellular and molecular responses were assessed essentially as described above in Example 9.

Structure (SMILES) | Mechanical allodynia (50% allodynia threshold), left (affected) paw ([1]; listed as (+)-naloxone) | Mechanical allodynia (50% allodynia threshold), left (affected) paw ([1]; listed as (+)-naloxone.HCl) | Mechanical allodynia (50% allodynia threshold), right (unaffected) paw [1] | IR-induced activation of MAP kinases (western blotting), steatotic livers ([2]; HFD) | IR-induced cleavage and activation of TLR9 (western blotting), steatotic livers ([2]; HFD) | Histological Suzuki score (hepatic IR injury), steatotic livers ([2]; HFD 12 weeks, 80 mg/kg ip 1 hour prior to ischemia, 3 and 12 hours of reperfusion) | IR-induced serum ALT levels, steatotic livers ([2]; HFD, 80 mg/kg ip, 3 and 12 hours of reperfusion) | Anti-inflammatory molecule IL-1Ra mRNA, steatotic livers ([2]; HFD, 12 hours of reperfusion) | IR-induced pro-inflammatory cytokines (IL-1β, MCP-1, NLPR3 mRNA), steatotic livers ([2]; HFD, 12 hours of reperfusion)
C=CCN1CC[C@]23c4c5ccc(O)c4O[C@H]2C(=O)CC[C@]3(O)[C@H]1C5 [(+)-Naloxone, (+)-naloxone] | effective at significantly reducing the allodynia | effective analgesic for reversing neuropathic pain | no significant group differences | – | – | – | – | – | –
CN[C@@H]1CC[C@]2(O)[C@@H]3Cc4ccc(O)c5c4[C@]2(CCN3CC2CC2)[C@@H]1O5 [II-78] | – | – | – | reduction of IR-induced activation of MAP kinases | reduction of IR-induced cleavage and activation of LTR9 | reduced hepatic ischemic reperfusion (IR) injury in steatotic livers | reduced IR-induced serum alanine transaminase (ALT) levels in steatotic livers | increased an anti-inflammatory molecule | reduced IR-induced pro-inflammatory cytokines
